# Measured values as given in ChEMBL document CHEMBL1681651, “A broad spectrum anticancer nucleoside with selective toxicity against human colon cells in vitro” (2011).
# Tests used:
# Assay type in all cases: functional
# SF-539 = assay: Growth inhibition of human SF539 cells after 48 hrs by […] growth inhibition assay; conditions: SF-539, 48 h
# SNB-19 = assay: Growth inhibition of human SNB19 cells after 48 hrs by […] growth inhibition assay; conditions: SNB-19, 48 h
# SN12C [1] = assay: Growth inhibition of human SN12C cells assessed as cell growth at 10 uM after 48 hrs by SRB assay; conditions: read-out: Activity
# UACC-62 = assay: Growth inhibition of human UACC62 cells assessed as cell growth at 1 uM after 48 hrs by SRB assay; conditions: UACC-62, 48 h, read-out: Activity
# COLO 205 = assay: Growth inhibition of human COLO205 cells assessed as cell growth at 0.1 uM after 48 hrs by SRB assay; conditions: COLO 205, 48 h, read-out: Activity
# CCRF-CEM = assay: Growth inhibition of human CCRF-CEM cells assessed as cell growth at 10 uM after 48 hrs by SRB assay; conditions: read-out: Activity
# U-251 [2] = assay: Growth inhibition of human U251 cells after 48 hrs by […] growth inhibition assay; conditions: U-251, 48 h
# MDA-MB-435 = assay: Growth inhibition of human MDA-MB-435 cells assessed as cell growth at 0.1 uM after 48 hrs by SRB assay; conditions: MDA-MB-435, 48 h, read-out: Activity
# NCI-H522 = assay: Growth inhibition of human NCI-H522 cells assessed as cell growth at 1 mM after 48 hrs by SRB assay; conditions: NCI-H522, 48 h, read-out: Activity
# CAKI-1 = assay: Growth inhibition of human Caki1 cells assessed as cell growth at 1 uM after 48 hrs by SRB assay; conditions: CAKI-1, 48 h, read-out: Activity
# HOP-92 [3] = assay: Growth inhibition of human HOP92 cells after 48 hrs by […] growth inhibition assay; conditions: HOP-92, 48 h
# HOP-92 [4] = assay: Growth inhibition of human HOP92 cells assessed as cell growth at 1 mM after 48 hrs by SRB assay; conditions: HOP-92, 48 h, read-out: Activity
# EKVX [5] = assay: Growth inhibition of human EKVX cells assessed as cell growth at 100 uM after 48 hrs by SRB assay; conditions: read-out: Activity
# IGROV-1 = assay: Growth inhibition of human IGROV1 cells assessed as cell growth at 10 uM after 48 hrs by SRB assay; conditions: IGROV-1, 48 h, read-out: Activity
# DU-145 [6] = assay: Growth inhibition of human DU145 cells assessed as cell growth at 100 uM after 48 hrs by SRB assay; conditions: DU-145, 48 h, read-out: Activity
# EKVX [7] = assay: Growth inhibition of human EKVX cells assessed as cell growth at 10 uM after 48 hrs by SRB assay; conditions: read-out: Activity
# SN12C [8] = assay: Growth inhibition of human SN12C cells after 48 hrs by […] growth inhibition assay
# DU-145 [9] = assay: Growth inhibition of human DU145 cells after 48 hrs by […] growth inhibition assay; conditions: DU-145, 48 h
# HCT-116 = assay: Growth inhibition of human HCT116 cells assessed as cell growth at 1 uM after 48 hrs by SRB assay; conditions: HCT-116, 48 h, read-out: Activity
# HT-29 = assay: Growth inhibition of human HT-29 cells assessed as cell growth at 100 uM after 48 hrs by SRB assay; conditions: HT-29, 48 h, read-out: Activity
# SF-295 = assay: Growth inhibition of human SF295 cells assessed as cell growth at 100 uM after 48 hrs by SRB assay; conditions: SF-295, 48 h, read-out: Activity
# OVCAR-5 = assay: Growth inhibition of human OVCAR5 cells assessed as cell growth at 0.1 uM after 48 hrs by SRB assay; conditions: OVCAR-5, 48 h, read-out: Activity
# T47D = assay: Growth inhibition of human T47D cells assessed as cell growth at 1 uM after 48 hrs by SRB assay; conditions: read-out: Activity
# HCC 2998 = assay: Growth inhibition of human HCC2998 cells assessed as cell growth at 1 uM after 48 hrs by SRB assay; conditions: HCC 2998, 48 h, read-out: Activity
# 786-0 = assay: Growth inhibition of human 786-0 cells assessed as cell growth at 0.1 uM after 48 hrs by SRB assay; conditions: 786-0, 48 h, read-out: Activity
# PC-3 = assay: Growth inhibition of human PC3 cells after 48 hrs by […] growth inhibition assay; conditions: PC-3, 48 h, read-out: LC50 (the source's name)
# LOX IMVI = assay: Growth inhibition of human LOXIMVI cells assessed as cell growth at 0.1 uM after 48 hrs by SRB assay; conditions: read-out: Activity
# BT-549 = assay: Growth inhibition of human BT549 cells assessed as cell growth at 10 uM after 48 hrs by SRB assay; conditions: BT-549, 48 h, read-out: Activity
# ACHN = assay: Growth inhibition of human ACHN cells assessed as cell growth at 0.1 uM after 48 hrs by SRB assay; conditions: read-out: Activity
# KM12 = assay: Growth inhibition of human KM12 cells assessed as cell growth at 100 uM after 48 hrs by SRB assay; conditions: KM12, 48 h, read-out: Activity
# NCI-H322M = assay: Growth inhibition of human NCI-H322M cells assessed as cell growth at 0.1 uM after 48 hrs by SRB assay; conditions: read-out: Activity
# U-251 [10] = assay: Growth inhibition of human U251 cells assessed as cell growth at 1 uM after 48 hrs by SRB assay; conditions: U-251, 48 h, read-out: Activity
# OVCAR-3 = assay: Growth inhibition of human OVCAR3 cells assessed as cell growth at 0.1 uM after 48 hrs by SRB assay; conditions: OVCAR-3, 48 h, read-out: Activity
# [11] = read-out: LC50 (the source's name)
# [12] = read-out: pLC50 (the source's name) (converted)
smiles,measurement,setting,value
CNC(=O)NC[C@H]1O[C@@H](n2cnc3c(NC(=O)Nc4ccccc4)ncnc32)[C@H](O[Si](C)(C)C(C)(C)C)[C@@H]1CC(=O)N(C)OC,GI50,SF-539; read-out: GI50,22.3 µM
same,CC50,SF-539; [11],> 100 µM
same,TGI,SF-539; read-out: TGI,> 100 µM
same,GI50,SF-539; read-out: pGI50 (converted),22.4 µM
same,CC50,SF-539; [12],> 100 µM
same,TGI,SF-539; read-out: pTGI (converted),> 100 µM
same,GI50,SNB-19; read-out: GI50,> 100 µM
same,CC50,SNB-19; [11],> 100 µM
same,TGI,SNB-19; read-out: TGI,> 100 µM
same,GI50,SNB-19; read-out: pGI50 (converted),> 100 µM
same,CC50,SNB-19; [12],> 100 µM
same,TGI,SNB-19; read-out: pTGI,> 100 µM
same,growth at 10 µM,SN12C [1],96%
same,growth at 1 µM,UACC-62,107%
same,growth at 0.1 µM,COLO 205,97%
same,growth at 10 µM,CCRF-CEM,96%
same,GI50,U-251 [2]; read-out: GI50,5.66 µM
same,CC50,U-251 [2]; [11],> 100 µM
same,TGI,U-251 [2]; read-out: TGI,> 100 µM
same,GI50,U-251 [2]; read-out: pGI50 (converted),5.62 µM
same,CC50,U-251 [2]; [12],> 100 µM
same,TGI,U-251 [2]; read-out: pTGI (converted),> 100 µM
same,growth at 0.1 µM,MDA-MB-435,100%
same,growth at 1000 µM,NCI-H522,31%
same,growth at 1 µM,CAKI-1,72%
same,GI50,HOP-92 [3]; read-out: GI50,2.71 µM
same,CC50,HOP-92 [3]; [11],> 100 µM
same,TGI,HOP-92 [3]; read-out: TGI,24.3 µM
same,GI50,HOP-92 [3]; read-out: pGI50 (converted),2.69 µM
same,CC50,HOP-92 [3]; [12],> 100 µM
same,TGI,HOP-92 [3]; read-out: pTGI (converted),24 µM
same,growth at 1000 µM,HOP-92 [4],-43%
same,growth at 100 µM,EKVX [5],60%
same,growth at 10 µM,IGROV-1,82%
same,growth at 100 µM,DU-145 [6],60%
same,growth at 10 µM,EKVX [7],95%
same,GI50,SN12C [8]; read-out: GI50,85.3 µM
same,CC50,SN12C [8]; [11],> 100 µM
same,TGI,SN12C [8]; read-out: TGI,> 100 µM
same,GI50,SN12C [8]; read-out: pGI50 (converted),85.1 µM
same,CC50,SN12C [8]; [12],> 100 µM
same,TGI,SN12C [8]; read-out: pTGI (converted),> 100 µM
same,GI50,DU-145 [9]; read-out: GI50,16.6 µM
same,CC50,DU-145 [9]; [11],> 100 µM
same,TGI,DU-145 [9]; read-out: TGI,> 100 µM
same,GI50,DU-145 [9]; read-out: pGI50 (converted),16.6 µM
same,CC50,DU-145 [9]; [12],> 100 µM
same,TGI,DU-145 [9]; read-out: pTGI (converted),> 100 µM
same,growth at 1 µM,HCT-116,90%
same,growth at 100 µM,HT-29,32%
same,growth at 100 µM,SF-295,48%
same,growth at 0.1 µM,OVCAR-5,99%
same,growth at 1 µM,T47D,89%
same,growth at 1 µM,HCC 2998,97%
same,growth at 0.1 µM,786-0,95%
same,CC50,PC-3,> 100 µM
same,growth at 0.1 µM,LOX IMVI,97%
same,growth at 10 µM,BT-549,96%
same,growth at 0.1 µM,ACHN,107%
same,growth at 100 µM,KM12,62%
same,growth at 0.1 µM,NCI-H322M,97%
same,growth at 1 µM,U-251 [10],101%
same,growth at 0.1 µM,OVCAR-3,95%
